Results as given in patent publication US12097215B2, “Antibacterial composition and its use in treating bacterial infections” (Vector Vitale IP LLC, priority 2017, dated 2024).

Experiments:
E. coli ATCC 25922 = experiment: MIC of deuterium-depleted water by serial dilutions in normal saline solution; assay type: cell-based; details: basic solution, 10^4, 10^6, 10^8 cells/ml
Description: (§1) The minimum inhibitory concentration (MIC) of deuterium-depleted water was determined by serial dilutions in normal saline solution. Reference strains of E. coli ATCC 25922 and P. aeruginosa ATCC 27859 were used as test cultures. For inoculation, microbial suspension equivalent to a 0.5 standard McFarland (1.5×10^8 cells/ml) was used. Then the dilutions with normal saline solution were prepared so that the concentration of microorganisms reached approximately 10^4 cells/ml. The test cultures were previously grown for 24 hours at 37° C. One-tenth of a milliliter (0.1 ml) of the suspension was placed into each test tube containing 4 ml of the medium with the investigative active substance at a certain concentration (without deuterium-depleted water in the control). The tubes were incubated in an incubator at 37° C. for 24 hours. After incubation the inoculum from each tube was plated on Mueller-Hinton agar medium for P. aeruginosa and on Endo for E. coli and incubated at 37° C. for another 24 hours. The results were evaluated based on the presence of bacterial growth (turbidity) in the nutrient broth and, if necessary, by using other additional known bacteriological tests. The first few tubes remained transparent due to the antimicrobial effect of the study substance. […] The results are shown in the table below and illustrated in FIGS. 5b and 5c.

P. aeruginosa ATCC 27859 = experiment: as above; assay type: cell-based; details: basic solution, 10^4, 10^6, 10^8 cells/ml; text names ATCC 27853
Description: as §1

SMILES: O [deuterium-depleted water]
- bactericidal effect (in words) (E. coli ATCC 25922): bactericidal effect
- bactericidal effect (in words) (P. aeruginosa ATCC 27859): bactericidal effect
